Laboratory results: PMC5342483, “Nucleoside 5′-O-monophosphorothioates as modulators of the P2Y14 receptor and mast cell degranulation” (Oncotarget, 2016)

Tests used:
Format in all cases: cell-based
P2Y14 receptor [1] = molecular target: T1, P2Y14 receptor (Homo sapiens, UniProt Q15391); test: Antagonist calcium mobilization assay (Fluo-8) in HEK293T Gαqi5 cells stably expressing human P2Y14R; residual response to UDPG (EC80)[…] at […], […] at […]; settings: HEK-293T; read-out: CONCENTRATION / 1000 μM
T1 construct: gene P2RY14
T1 sequence (Q15391 1-338): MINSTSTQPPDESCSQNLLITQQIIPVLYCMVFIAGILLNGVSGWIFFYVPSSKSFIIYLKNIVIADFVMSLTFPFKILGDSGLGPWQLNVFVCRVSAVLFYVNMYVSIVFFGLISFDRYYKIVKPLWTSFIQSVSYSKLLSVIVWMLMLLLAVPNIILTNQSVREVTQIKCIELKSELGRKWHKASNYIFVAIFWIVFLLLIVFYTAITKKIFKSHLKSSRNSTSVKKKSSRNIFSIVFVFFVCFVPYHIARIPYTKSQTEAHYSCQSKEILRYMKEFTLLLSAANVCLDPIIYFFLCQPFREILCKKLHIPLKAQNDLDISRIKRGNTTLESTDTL

P2Y14 receptor [2] = molecular target: T1, P2Y14 receptor; test: Agonist calcium mobilization assay (Fluo-8) in HEK293T Gαqi5 cells stably expressing human P2Y14R; settings: HEK-293T; read-out: CONCENTRATION / 1 μM
P2Y14 receptor [3] = molecular target: T1, P2Y14 receptor; test: as above; settings: HEK-293T; read-out: CONCENTRATION / 100 μM

| Compound | activation at 100 µM (P2Y14 receptor [3]) [%] | other results |
| --- | --- | --- |
| Cc1cn([C@H]2C[C@H](O)[C@@H](COP(O)(O)=S)O2)c(=O)[nH]c1=O [TMPS, thymidine 5'-O-monophosphorothioate] |  | activity at 1000 µM (P2Y14 receptor [1]): 17.3 ± 52.9% |
| O=c1ccn([C@@H]2O[C@H](COP(O)(O)=S)[C@@H](O)[C@H]2O)c(=O)[nH]1 [UMPS, uridine 5'-O-monophosphorothioate] |  | activation at 1 µM (P2Y14 receptor [2]): 84.5 ± 5.34% |
| Nc1ccn([C@@H]2O[C@H](COP(O)(O)=S)[C@@H](O)[C@H]2O)c(=O)n1 [CMPS, cytidine 5'-O-monophosphorothioate] | 77.5 ± 4.4 |  |
| Nc1ncnc2c1ncn2[C@@H]1O[C@H](COP(O)(O)=S)[C@@H](O)[C@H]1O [AMPS, adenosine 5'-O-monophosphorothioate] | 84.4 ± 17.6 |  |
